How the values were obtained:
gastric acid secretion = conditions: cited from earlier work
stomach acid secretion = conditions: rat model, cited from earlier work
[1] = open label observation for control of heart burn in volunteers; assay type: in vivo, human; conditions: open label observations in people
Text: The preferred ingredients of the dietary supplement formulations for preventing or treating or managing upper digestive disorders referred to in this patent including but not limited to acid related disease, H. pylori infection and ulcerogenic medications, drugs or substances such as alcohol, tobacco smoke or any other damaging agent that is ingested or absorbed in to the body that may cause upper digestive disturbance are listed in one formulation that has undergone open label observation for the control of the symptom heart burn in six volunteers with recurrent heart burn and this formulation was made in several batches of a chewable tablet with the following ingredients that have been modified from time to time. These chewable tablets contain the following ingredients with amounts listed in two chewable tablets. The range of the ingredients has been made in different dosage amounts of each ingredient and tested in at least two volunteers for each of six batches of varying dosage of ingredients. Each batch consistently relieved symptoms of mild moderate or severe heart burn in open labeled observations in volunteers with symptoms of gastresophageal reflux disease.

Row | Compound | development of stomach ulcers (gastric acid secretion; animals exposed to cold water immersion or restraint) | gastric acid secretion (gastric acid secretion; animals) | formation of gastric ulcers (gastric acid secretion; pylorus-ligated animals) | stomach acid secretion (stomach acid secretion; at a certain dosage level) | stomach ulcers (stomach acid secretion) | dyspepsia and heartburn [1]
1 | salvianolic acid | prevents the development of stomach ulcers | reduce gastric acid secretion | reduce the formation of gastric ulcers |  |  | 
2 | O=c1oc2c(O)c(O)cc3c(=O)oc4c(O)c(O)cc1c4c23 [ellagic acid] |  |  |  | stomach acid secretion was blocked | ulcers could be prevented in part | has helped people with dyspepsia and heartburn
